In data set [1] the test system is C. auris. Description: Postantifungal effect (PAFE). Particulars: 2 and 4 mg/L, 1 h exposure, six blood isolates. It is filed as cell-based, Candida auris. As for the experimental part:
Materials & Methods: PAFE experiments were performed in microtitre plates, with six C. auris clinical blood isolates (Hospital La Fe, Valencia, Spain). […] Cell pellets were re-suspended in RPMI medium and added back to the microtitre plates. Sample for viable counts were taken at 0, 2, 4, 6, 8, 24 and 48 h after re-suspension, plated in triplicate onto Sabouraud dextrose agar and incubated for 24–48 h at 37 °C. Experiments were performed in duplicate for each isolate on different days. PAFE was calculated as follows: PAFE = T − C. Where “T” is the time needed by the treated fungal cultures to growth 1 log after drug removal and “C” is the time needed by the control group to growth 1 log after last washout. Additionally, maximum log reductions of time-kill and PAFE experiments were compared and used to calculate a PAFE/time-kill index to determine the percentage of cell killing that could be attributed to the PAFE.

In data set [2] the test system is sessile cells of yeast mono and dual-species biofilms. Briefly: MIC of catheter yeast isolates, mono and dual-species biofilms. The format is cell-based. The settings on record: range.
Data set [3] relates to Sporothrix brasiliensis. Briefly: Murine subcutaneous sporotrichosis model. The settings on record: oral gavage once a day, 30 days; ITZ 50 mg/kg; DD 1, 5 or 10 mg/kg. It is filed as in vivo, Balb/c mice. How it is done: Materials & Methods: 50 Balb/c mice, male, five to seven-week-old, were subcutaneous infected (left footpad) by a clinical isolate of S. brasiliensis (5.4 × 10^7 yeast/mice). Treatments started seven days post-inoculation (p.i) in all five groups (10 mice/each): G1 control group (placebo—receiving just the diluent of the drugs), G2 treatment group (itraconazole—ITZ 50 mg/kg); G3 to G5 DD treatment groups, 1, 5 and 10 mg/kg, respectively. All mice were treated once a day by oral gavage, for 30 consecutive days. Physical conditions and behavior were daily evaluated, and individual weight was weekly determined. At the 32nd day p.i. (48 h after the end of the treatments) animals were euthanasied and lung, liver, brain, kidneys, testicle and footpad were recovered aseptically and homogenized to mycological analysis. Fungal burden in each organ was measured by quantitatively counting colony-forming units (CFU). The determination of colony forming units (CFU)/gram of tissue (g) of S. brasiliensis in internal organs of groups were compared by non-parametric tests using Kruskal-Wallis combined with Wilcoxon. The weight loss assay was calculated considering the percentage of loss and/or increase between the value corresponding to the fungal inoculation day and to the end of the treatment.

The subject of data set [4] is A. flavus complex. Particulars: n = 6, EUCAST clinical breakpoints.
The nature of data set [5]: Voriconazole exposure during ECMO, retrospective. The format is in vivo, human.
Data set [6] relates to F. solani (FS) biofilms. Description: Mature biofilm damage, XTT metabolic reduction assay. Particulars: Fusarium solani, 24 h, read-out: BF MIC50. For orientation: Tetrazolium assays rely on reduction of a dye to a coloured formazan, in cell work by metabolically active cells.
Data set [7] has as its system Scedosporium apiospermum. Description: EUCAST reference method MIC. The format is cell-based. As for the experimental part: Case presentation: A patient presented with a bursitis of their left elbow. Six months before they were treated with lymphodepleting chemotherapy directly followed by B-cell associated CD19-specific chimeric antigen receptor (CAR) T cell therapy for recurrence of follicular lymphoma. They were considered immunocompromised, with total neutrophils and lymphocytes slightly below normal levels, absent B-cells, and a treatment associated persistent hypogammaglobulinaemia. Four weeks before presentation at our hospital they contacted their GP because of swelling and pain of their left elbow. Their GP aspirated fluid from their elbow, injected steroids and started antibiotics, but now there was recurrence of swelling and pain. Bursitis without arthritis was diagnosed by a rheumatologist and the bursa was surgically opened and drained, relieving pus. The patient was started on oral flucloxacillin and sent home. Two days later the culture of the pus from the bursa grew white colonies on a Sabouraud dextrose agar plate, showing long conidophores with large oval conidia on microscopy. […] Over the next few weeks the bursitis symptoms diminished. […] Voriconazole is considered first line treatment for Scedosporium infections. […] Eight weeks later there were no signs of bursitis and posaconazole was discontinued.

Data set [8] relates to C. parapsilosis. Description: ARIA surveillance, CLSI M27 broth microdilution. The format is cell-based, Candida parapsilosis.
The test system of data set [9] is C. albicans SC5314 experimental population. Briefly: Experimental evolution under fluconazole, azole susceptibility. The format is cell-based. The settings on record: Candida albicans.
Data set [10] concerns environmental yeasts from a lagoon. Briefly: organism not typed. It is filed as cell-based.
The test system of data set [11] is C. glabrata isolates. Briefly: Rapid XTT assay based on EUCAST E.Def 7.3. It is filed as cell-based, Candida glabrata.
Data set [12] has as its system Cryptococcus bacillisporus (AFLP5/VGIII). Briefly: E-test method. It is filed as cell-based.
Data set [13] concerns C. parapsilosis SC isolates. Briefly: Candidemia survey Greece, susceptibility per hospital protocol. It is filed as cell-based, Candida parapsilosis species complex.
Data set [14] concerns C. tropicalis. It is filed as cell-based, Candida tropicalis. The settings on record: all successive strains.

Consider four compounds from article PMC8624133, “10th Trends in Medical Mycology Held on 8 to 11 October 2021, Aberdeen, Scotland, Organized by the European Confederation of Medical Mycology (ECMM)” (Journal of Fungi, 2021).

The structures appear in SMILES notation. Converted amounts (≈) assume the structure as drawn. “And” between values parts separate entries of the source, which are not always exact repeats. Identical values can stand only once. Bounds are passed on as bounds.

In [1], `C[C@@H]1[C@H](O)[C@@H](C)/C=C/C=C/C=C/C=C/C=C/C=C/C=C/[C@H](O[C@@H]2O[C@H](C)[C@@H](O)[C@H](N)[C@@H]2O)C[C@@H]2O[C@](O)(C[C@@H](O)C[C@@H](O)[C@H](O)CC[C@@H](O)C[C@@H](O)CC(=O)O[C@H]1C)C[C@H](O)[C@H]2C(=O)O` [amphotericin B] showed a PAFE of 3.5 to 6.5 h. Moreover, the MIC in data set [2] was in the range of 0.25 to 8 µg/mL.

Take `CCC(C)n1ncn(-c2ccc(N3CCN(c4ccc(OCC5COC(Cn6cncn6)(c6ccc(Cl)cc6Cl)O5)cc4)CC3)cc2)c1=O` (centres unmarked) [itraconazole]: the “fungal burden of internal organs vs placebo group” value in data set [3] is “lower fungal burden”. This compound also yielded an isolates resistant in data set [4] of 17%.

`C[C@@H](c1ncncc1F)[C@](O)(Cn1cncn1)c1ccc(F)cc1F` [voriconazole]: the “samples with subtherapeutic concentration (<2 mg/L)” value in [5] (during ECMO) was determined as 56%; in [5] (without ECMO), 39%. The “median trough concentration [IQR]” value in data set [5] (under ECMO) is 2.4 [1.2–4.7] mg/L; in [5] (without ECMO), 2.5 [1.4–3.9] mg/L. The MIC50 in data set [6] is more than 256 µg/mL. In addition, the MIC in [7] (first isolate from bursa pus) is 0.5 µg/mL (≈ 1.43 µM); in data set [7] (isolate two months later, under posaconazole) it was 1 µg/mL (≈ 2.86 µM).

Consider `OC(Cn1cncn1)(Cn1cncn1)c1ccc(F)cc1F` [fluconazole], for which the susceptibility was 52.4% in [8] (Italy); 76.2% in [8] (Turkey); 100% in [8] (all countries except Italy and Turkey). In [8] (all countries), this compound returned an overall susceptibility of 88.5%. Besides, the MIC in data set [9] (SC5314) is 0.5 µg/mL (≈ 1.63 µM); in data set [9] (SC5314, 168 h), 8 µg/mL (≈ 26.1 µM); in data set [10] (range, read-out: MIC of resistant-like isolates) it was 64 to 2050 µg/mL. The “isolates classified as resistant-like” value in data set [10] (number of 71 yeasts, MIC at or above Candida breakpoint) was “Fifty-five”. In addition, the “XTT-absorbance in drug-treated wells” value in data set [11] was 0.67 ± 0.15 and 0.51 ± 0.08. For the same compound, the antifungal susceptibility result in [12] was “low response”. For the same compound, the Resistance in data set [13] turned out to be 20%. In addition, the susceptibility category entry in data set [14] is recorded as “susceptible”.
